Assay results published in paper PMC8046379, “Fragment binding to the Nsp3 macrodomain of SARS-CoV-2 identified through crystallographic screening and computational docking” (Science Advances, 2021).

Experiments:
Type in all cases: binding
[1] = target: T1, SARS-CoV-2 Nsp3 Mac1 (Severe acute respiratory syndrome coronavirus 2, UniProt P0DTD1); conditions: fragments 0.188 to 3 mM concentration response
[2] = target: T1, SARS-CoV-2 Nsp3 Mac1; assay: biochemical; conditions: ADPr-peptide displacement from His6-Mac1; ± estimated SE
[3] = target: T1, SARS-CoV-2 Nsp3 Mac1; assay: biochemical

Molecule	effect on apparent melting temperature (Tma) in DSF, in words [1]	IC50 [2]	Kd [3]
adenosine diphosphate ribose [ADP-ribose, reference compound]	substantial elevation	–	–
CN(CC1CCCOC1)c1ncc(O)cn1 (stereo not drawn) [ZINC1337772170]	not identified as binders	971 µM	–
Cn1cnc2c(N)nc(N)nc21 [ZINC26180281]	stabilized Mac1	> 2000 µM	2900 ± 700 µM
Cc1c(C)n(Cc2ccco2)c2ncnc(N)c12 [ZINC3888754]	stabilized Mac1	–	–
Nc1nc2nccnc2c(=O)[nH]1 [pterin]	not identified as binders	784 µM	–
